Six compounds from patent publication US12089595B2, “Pseudomonas strains and their metabolites to control plant diseases” (T3 Bioscience, Inc., priority 2020, dated 2024) can be followed below.

The test system of one series is E. amylovora. Nature of the series: Plate diffusion assay in LB plates. Type of series: cell-based, Erwinia amylovora. The source says: Two assays were used for the antimicrobial test of 0617-T307 cell broth and metabolites. One is plate diffusion assay and the other one is microplate assay. LB plate was used for the plate diffusion assay of the antimicrobial activity of RejuAgro A containing fractions and cell broths against E. amylovora (Table 3).

A further series has as its system Erwinia amylovora 273. Nature of the series: In vitro plate assay of flash fractions. The settings on record: E. amylovora 273 on 50% LB plate, 2 μL DMSO solution, one day. It is filed as cell-based. As to the method:
The generated fractions were applied for the subsequent plate assays. One mL of each fraction was picked up into a 1.5 mL test tube and vacuum dried by an Eppendorf vacuum concentrator. The dried sample was dissolved in 50 μL DMSO, of which 2 μL was used in the plate assay. Briefly, Erwinia amylovora 273 was streaked onto LB plate to grow at 28° C. incubator and single colony obtained after 24 h was inoculated into 5 mL LB media to allow an overnight growth at 28° C. shaker at 200 rpm. The bacteria were diluted 1:100 in sterile water, of which 225 μL was plated onto 50% LB plate (Tryptone, 5.0 g/L; Yeast extract, 2.5 g/L; NaCl, 5.0 g/L, Agar, 15 g/L). After dried in the biosafety cabinet for 10 mins, the DMSO solution of each fraction was then distributed to its pre-labeled section of the petri dish and allowed to dry for another 10 min. Along with the assay, DMSO and Kasugamycin were used as negative and positive controls, respectively. The plates were then incubated at 28° C. incubator and the inhibitory zone was checked one day later.
The generated fractions were applied for the subsequent plate assays. One mL of each fractions was picked up into a 1.5 mL test tube and vacuum dried by an Eppendorf vacuum concentrator. The dried sample was dissolved in 50 μL DMSO, of which 2 μL was used in the plate assay. […]

The subject of series [1] is X. arboricola pv. Juglandis Xaj219. Nature of the series: microbe, parasite or virus in culture. It is filed as cell-based, Xanthomonas arboricola pv. Juglandis. The settings on record: Xanthomonas arboricola, read-out: Diameter of the zone of inhibition.
Series [2] has as its system X. arboricola pv. Juglandis Xaj417. As to the kind of experiment: microbe, parasite or virus in culture. Type of series: cell-based, Xanthomonas arboricola pv. Juglandis. The settings on record: Xanthomonas arboricola, read-out: Diameter of the zone of inhibition.
The subject of the next series is R. solanacearum K60. Nature of the series: microbe, parasite or virus in culture. It is filed as cell-based. The settings on record: Ralstonia solanacearum, K60, read-out: Diameter of the zone of inhibition.
The test system of the next series is R. solanacearum Pss. Nature of the series: microbe, parasite or virus in culture. Type of series: cell-based. Conditions: Ralstonia solanacearum, read-out: Diameter of the zone of inhibition.
A short description of another series: Solubility in solvents. It is filed as physicochemical. On the procedure:
Preparative HPLC (Prep-HPLC) purification of the fraction 3840 and 5054 lead to the discovery of 15 mg yellow colored compound RejuAgro A (Rt17.5) and 103.3 mg dark-green colored compound RejuAgro B, respectively. […] The structures of the two compounds have been investigated by High resolution mass spectrometry (HR-MS), infrared (IR), Ultraviolet (UV), 1D and 2D Nuclear magnetic resonance (NMR) as well as X-ray crystal structure analysis.

Series [3] has as its system Clavibacter michiganensis subsp. michiganensis Cmm 0317. As to the kind of experiment: Agar plate spot assay (inhibitory zone). It is filed as cell-based. Conditions: LB, 2 to 5 days.
The next series has as its system Erwinia amylovora 1189. Nature of the series: Agar plate spot assay (inhibitory zone). Type of series: cell-based. The settings on record: LB. An excerpt:
(§1) The HPLC isolation and purification of the ethyl acetate extracts of acidified cell broth of Pseudomonas sp. 0617-T307 identified two antimicrobial compounds (Rt22.9 and Rt25.0) from flash fraction T5058 and one antimicrobial compound (Rt18.9) from flash fraction T7882. Two μL of DMSO, Rt18.9, Rt22.9 or Rt25.0 were spotted on agar plates respectively grown with different bacterial strains and the inhibitory zone was further examined (Table 8).

The subject of series [4] is Pectobacterium atrosepticum 942. As to the kind of experiment: Agar plate spot assay (inhibitory zone). It is filed as cell-based. Conditions: LB.
Source text: as §1

Series [5] concerns Pectobacterium carotovorum subsp. brasiliensis 944. As to the kind of experiment: Agar plate spot assay (inhibitory zone). Type of series: cell-based. The settings on record: P. carotovorum subsp. brasiliensis 944, LB.
Source text: as §1

In series [6] the test system is Pectobacterium parmentieri UPP163 936. As to the kind of experiment: Agar plate spot assay (inhibitory zone). Type of series: cell-based. Conditions: LB.
Source text: as §1

For series [7], the system named is Pseudomonas savastanoi pv. savastanoi 01-26. Nature of the series: Agar plate spot assay (inhibitory zone). It is filed as cell-based. Conditions: P. savastanoi pv. savastanoi 01-26, LB.
Source text: as §1

Series [8] has as its system Pseudomonas syringae pv syringae 7046. Nature of the series: Agar plate spot assay (inhibitory zone). It is filed as cell-based. The settings on record: P. syringae pv syringae 7046, LB.
Source text: as §1

Series [9] has as its system Pseudomonas syringae pv. lachrymans 1188-1. Nature of the series: Agar plate spot assay (inhibitory zone). Type of series: cell-based. The settings on record: P. syringae pv. lachrymans 1188-1, LB.
Source text: as §1

Series [10] deals with Pseudomonas syringae pv. tomato PT30. As to the kind of experiment: Agar plate spot assay (inhibitory zone). Type of series: cell-based. Conditions: P. syringae pv. tomato PT30, LB.
Source text: as §1

The subject of series [11] is Xanthomonas arboricola pv. Juglandis 219. As to the kind of experiment: Agar plate spot assay (inhibitory zone). Type of series: cell-based. Conditions: X. arboricola pv. Juglandis 219, NA.
Source text: as §1

The subject of series [12] is Xanthomonas arboricola pv. Juglandis 417. As to the kind of experiment: Agar plate spot assay (inhibitory zone). It is filed as cell-based. Conditions: X. arboricola pv. Juglandis 417, NA.
Source text: as §1

Series [13] relates to Xanthomonas axonopodis pv. citri N40-SO5. As to the kind of experiment: Agar plate spot assay (inhibitory zone). Type of series: cell-based. The settings on record: Xac N40-SO5, NA.
Series [14] concerns Ralstonia solanacearum K60. It is filed as cell-based. The settings on record: LB.
The subject of series [15] is Xanthomonas axonopodis pv. citri-Miami XC2002-00010. As to the kind of experiment: Agar plate spot assay (inhibitory zone). Type of series: cell-based. The settings on record: Xac-Miami XC2002-00010, NA.
Series [16] concerns C. michiganensis subsp. Michiganensis Cmm382. As to the kind of experiment: Agar plate diffusion assay. Type of series: cell-based, Clavibacter michiganensis subsp. michiganensis. The settings on record: Clavibacter michiganensis, read-out: Diameter of the zone of inhibition.
The test system of series [17] is C. michiganensis subsp. Michiganensis Cmm0317. Nature of the series: Agar plate diffusion assay. Conditions: Clavibacter michiganensis, read-out: Diameter of the zone of inhibition. It is filed as cell-based, Clavibacter michiganensis subsp. michiganensis.
For series [18], the system named is C. michiganensis subsp. Michiganensis Cmm0690. Nature of the series: Agar plate diffusion assay. It is filed as cell-based, Clavibacter michiganensis subsp. michiganensis. Conditions: Clavibacter michiganensis, read-out: Diameter of the zone of inhibition.
The subject of the next series is Venturia inaequalis. As to the kind of experiment: Antifungal assay on amended PDA plates. Type of series: cell-based. Conditions: 200-1000 μg/mL in PDA plate; day 14 (figure). On the procedure: The fungus Venturia inaqualis that causes apple scab was maintained on PDA agar in the dark at room temperature (˜24° C.). A mixture of conidia and mycelia suspension (in 0.01 M PBS) was harvested from PDA (Potato dextrose agar). Ten μL the conidia and mycelia suspension were dropped onto biocontrol bacteria, RejuAgro A, or RejuAgro A amended plates. The control was PDA plates without the addition of the biocontrol bacteria or RejuAgro A or B. […]

“Also recorded” adds a separate entry of the source. Where two headings read alike, the source gives them in different places.

Consider `C[C@H]1O[C@H](O[C@H]2[C@H](O)[C@@H](O)[C@@H](O)[C@H](O)[C@@H]2O)[C@@H](N)C[C@@H]1NC(=N)C(=O)O` [Kasugamycin, reference compound], for which the “Diameter of the Inhibitory zone” value with E. amylovora (concentration not given) was 1.3 cm. Also, the “inhibitory zone / zone of clearance” value with Erwinia amylovora 273 is “did show a zone of inhibition”.
`CC1=C(C2=C(C)C(=O)C(=O)NC2=O)C(=O)NC(=O)C1=O` [RejuAgro B]: the zone of inhibition at 2000 µg/mL is 0 mm in the series with E. amylovora (Erwinia amylovora, 2 mg/mL, read-out: Diameter of the Inhibitory zone); 0 mm in series [1]; 0 mm in series [2]; 4 mm in the series on R. solanacearum K60; 4 mm in the series with R. solanacearum Pss. Moreover, the “solubility in dimethyl sulfoxide (DMSO)” value in “Solubility in solvents” (DMSO) is “can be dissolved very well”. Moreover, the “solubility in methanol and chloroform” value in the series “Solubility in solvents” (methanol, chloroform) is “does not dissolve well”.
As for `CC(C)CC(=O)NC(Cc1c[nH]c2ccccc12)C(=O)O` (centres unmarked) [Rt22.9], the “Inhibitory zone (Yes/No)” value in series [3] (2 μL of 10 mg/mL spotted) is “Yes”; with Erwinia amylovora 1189 (10 mg/mL), “No”; in [4] (10 mg/mL) it was “No”; in series [5] (10 mg/mL) it was “No”; in series [6] (10 mg/mL), “No”; in series [7] (10 mg/mL), “Yes”. Also, the “Inhibitory zone (Yes/No)” value in series [8] (10 mg/mL) was “Yes”; in [9] (10 mg/mL), “Yes”; in series [10] (10 mg/mL), “Yes”; in [11] (10 mg/mL), “No”; in [12] (10 mg/mL), “No”; in [13] (10 mg/mL), “No”. In addition, the “Inhibitory zone (Yes/No)” value in series [14] (10 mg/mL) was “Yes”; in series [15] (10 mg/mL), “No”.
Consider `CCCCCC(=O)NC(Cc1c[nH]c2ccccc12)C(=O)O` (centres unmarked) [Rt25.0], for which the “Inhibitory zone (Yes/No)” value is “Yes” in series [3] (2 μL of 5 mg/mL spotted); “No” in the series with Erwinia amylovora 1189 (5 mg/mL); “No” in [4] (5 mg/mL); “Yes” in series [5] (5 mg/mL); “No” in series [6] (5 mg/mL); “Yes” in series [7] (5 mg/mL). Moreover, the “Inhibitory zone (Yes/No)” value in series [8] (5 mg/mL) is “Yes”; in [9] (5 mg/mL), “Yes”; in series [10] (5 mg/mL) it was “Yes”; in series [11] (5 mg/mL), “Yes”; in series [12] (5 mg/mL) it was “No”; in series [13] (5 mg/mL), “Yes”. Besides, the “Inhibitory zone (Yes/No)” value in series [14] (5 mg/mL) and in series [15] (5 mg/mL) was “Yes” in each case.
On to `CN[C@H](CC(C)C)C(=O)N[C@H]1C(=O)N[C@@H](CC(N)=O)C(=O)N[C@H]2C(=O)N[C@H]3C(=O)N[C@H](C(=O)N[C@H](C(=O)O)c4cc(O)cc(O)c4-c4cc3ccc4O)[C@H](O)c3ccc(c(Cl)c3)Oc3cc2cc(c3O[C@@H]2O[C@H](CO)[C@@H](O)[C@H](O)[C@H]2O[C@H]2C[C@](C)(N)[C@H](O)[C@H](C)O2)Oc2ccc(cc2Cl)[C@H]1O` [Vancomycin], for which the zone of inhibition at 5000 µg/mL in series [16], in series [17] and in series [18] was 30 mm in each case.
Turning to `O=S(=O)([O-])[O-].[Cu+2]` [copper sulfate, reference compound], in the series with Venturia inaequalis, the “growth of V. inaequalis on PDA plates” value is recorded as “no inhibition; also recorded: can grow”.
